Assays:
influenza virus = assay: In vitro anti-viral assay in A549 cells (plaque assay, viral mRNA); assay type: cell-based
[1] = system: virulent influenza virus strain; parameters: species or system mice; conditions: mouse, in vivo
PI3K p110δ = target: T1, PI3K p110δ (Homo sapiens, UniProt O00329); assay: PI3K isoform inhibition in vitro, p110δ; assay type: biochemical; conditions: class I PI3K isoform δ
T1 construct: purchased Reaction Biology Corporation (RBC) Malvern, Pa
Excerpt: (§1) A PI3K assay can be used to evaluate the activity of the prototype molecule. Reaction Biology Corporation (RBC) Malvern, Pa. offers Class I PI3Ks (PI3Kα, PI3Kβ, PI3Kγ, and PI3Kδ). The PIP3 product is detected by displacement of biotin-PIP3 from an energy transfer complex consisting of Europium labeled anti-GST monoclonal antibody, a GST-tagged pleckstrin homology (PH) domain, biotinylated PIP3 and Streptavidin-Allophycocyanin (APC). Excitation of Europium in the complex results in an energy transfer to the APC and a fluorescent emission at 665 nm. The PIP3 product formed displaces biotin-PIP3 from the complex resulting in a loss of energy transfer and thus a decrease in signal.

PI3K p110α = target: T2, PI3K p110α (Homo sapiens, UniProt P42336); assay: PI3K isoform inhibition in vitro, p110α; assay type: biochemical; conditions: class I PI3K isoform α
T2 construct: purchased Reaction Biology Corporation (RBC) Malvern, Pa
Excerpt: as §1

PI3K p110β = target: T3, PI3K p110β (Homo sapiens, UniProt P42338); assay: PI3K isoform inhibition in vitro, p110β; assay type: biochemical; conditions: class I PI3K isoform β
T3 construct: purchased Reaction Biology Corporation (RBC) Malvern, Pa
Excerpt: as §1

PI3K p110γ = target: T4, PI3K p110γ (Homo sapiens, UniProt P48736); assay: PI3K isoform inhibition in vitro, p110γ; assay type: biochemical; conditions: class I PI3K isoform γ
T4 construct: purchased Reaction Biology Corporation (RBC) Malvern, Pa
Excerpt: as §1

T3 sequence (P42338 whole entry, canonical isoform): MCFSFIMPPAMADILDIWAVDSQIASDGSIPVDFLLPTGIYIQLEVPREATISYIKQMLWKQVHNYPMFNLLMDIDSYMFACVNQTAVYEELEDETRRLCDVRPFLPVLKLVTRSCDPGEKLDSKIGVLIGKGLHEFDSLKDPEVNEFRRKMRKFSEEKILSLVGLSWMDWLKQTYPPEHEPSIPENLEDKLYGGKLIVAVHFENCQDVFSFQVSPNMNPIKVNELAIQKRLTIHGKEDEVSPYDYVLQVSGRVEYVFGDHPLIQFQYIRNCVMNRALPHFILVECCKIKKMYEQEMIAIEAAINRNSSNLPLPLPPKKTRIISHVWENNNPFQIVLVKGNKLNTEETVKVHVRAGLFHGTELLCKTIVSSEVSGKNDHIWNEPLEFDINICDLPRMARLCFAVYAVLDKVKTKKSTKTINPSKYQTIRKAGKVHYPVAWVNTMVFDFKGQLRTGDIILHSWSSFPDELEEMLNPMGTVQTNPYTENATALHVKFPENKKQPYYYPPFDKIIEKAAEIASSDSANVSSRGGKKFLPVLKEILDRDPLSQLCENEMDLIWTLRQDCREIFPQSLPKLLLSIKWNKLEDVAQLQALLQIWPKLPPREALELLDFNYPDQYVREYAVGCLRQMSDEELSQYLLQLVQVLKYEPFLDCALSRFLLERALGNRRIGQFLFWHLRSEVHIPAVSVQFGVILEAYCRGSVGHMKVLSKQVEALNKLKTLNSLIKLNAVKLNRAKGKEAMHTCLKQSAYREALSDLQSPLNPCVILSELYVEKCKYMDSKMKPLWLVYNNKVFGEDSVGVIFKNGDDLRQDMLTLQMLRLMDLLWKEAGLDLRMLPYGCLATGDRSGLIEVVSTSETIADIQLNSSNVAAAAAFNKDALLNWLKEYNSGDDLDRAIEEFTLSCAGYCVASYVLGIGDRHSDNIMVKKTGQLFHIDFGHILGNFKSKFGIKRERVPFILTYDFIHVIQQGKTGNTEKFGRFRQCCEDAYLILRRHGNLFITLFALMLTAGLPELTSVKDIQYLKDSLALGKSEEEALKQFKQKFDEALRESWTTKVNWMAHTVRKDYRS
T3 sequence (P27986 whole entry partner, canonical isoform): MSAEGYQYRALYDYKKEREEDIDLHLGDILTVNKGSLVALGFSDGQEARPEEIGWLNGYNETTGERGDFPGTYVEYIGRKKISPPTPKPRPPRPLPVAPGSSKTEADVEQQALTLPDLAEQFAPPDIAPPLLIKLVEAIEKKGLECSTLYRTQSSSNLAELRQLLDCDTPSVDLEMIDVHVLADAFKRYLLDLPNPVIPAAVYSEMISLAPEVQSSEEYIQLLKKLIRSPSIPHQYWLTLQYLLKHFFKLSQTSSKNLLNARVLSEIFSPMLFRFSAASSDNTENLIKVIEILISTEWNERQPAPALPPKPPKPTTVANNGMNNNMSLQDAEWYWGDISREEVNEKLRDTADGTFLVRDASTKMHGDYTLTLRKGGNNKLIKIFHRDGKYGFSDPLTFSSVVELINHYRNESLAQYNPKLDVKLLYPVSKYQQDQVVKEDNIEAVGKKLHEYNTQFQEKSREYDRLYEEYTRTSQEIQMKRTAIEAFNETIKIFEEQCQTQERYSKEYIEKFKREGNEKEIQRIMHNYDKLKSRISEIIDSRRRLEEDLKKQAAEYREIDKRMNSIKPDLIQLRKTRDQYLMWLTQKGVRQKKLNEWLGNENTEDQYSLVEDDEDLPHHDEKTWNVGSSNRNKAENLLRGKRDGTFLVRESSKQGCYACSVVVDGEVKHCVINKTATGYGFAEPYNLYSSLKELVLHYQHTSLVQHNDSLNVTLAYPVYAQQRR
T1 sequence (O00329 whole entry, canonical isoform): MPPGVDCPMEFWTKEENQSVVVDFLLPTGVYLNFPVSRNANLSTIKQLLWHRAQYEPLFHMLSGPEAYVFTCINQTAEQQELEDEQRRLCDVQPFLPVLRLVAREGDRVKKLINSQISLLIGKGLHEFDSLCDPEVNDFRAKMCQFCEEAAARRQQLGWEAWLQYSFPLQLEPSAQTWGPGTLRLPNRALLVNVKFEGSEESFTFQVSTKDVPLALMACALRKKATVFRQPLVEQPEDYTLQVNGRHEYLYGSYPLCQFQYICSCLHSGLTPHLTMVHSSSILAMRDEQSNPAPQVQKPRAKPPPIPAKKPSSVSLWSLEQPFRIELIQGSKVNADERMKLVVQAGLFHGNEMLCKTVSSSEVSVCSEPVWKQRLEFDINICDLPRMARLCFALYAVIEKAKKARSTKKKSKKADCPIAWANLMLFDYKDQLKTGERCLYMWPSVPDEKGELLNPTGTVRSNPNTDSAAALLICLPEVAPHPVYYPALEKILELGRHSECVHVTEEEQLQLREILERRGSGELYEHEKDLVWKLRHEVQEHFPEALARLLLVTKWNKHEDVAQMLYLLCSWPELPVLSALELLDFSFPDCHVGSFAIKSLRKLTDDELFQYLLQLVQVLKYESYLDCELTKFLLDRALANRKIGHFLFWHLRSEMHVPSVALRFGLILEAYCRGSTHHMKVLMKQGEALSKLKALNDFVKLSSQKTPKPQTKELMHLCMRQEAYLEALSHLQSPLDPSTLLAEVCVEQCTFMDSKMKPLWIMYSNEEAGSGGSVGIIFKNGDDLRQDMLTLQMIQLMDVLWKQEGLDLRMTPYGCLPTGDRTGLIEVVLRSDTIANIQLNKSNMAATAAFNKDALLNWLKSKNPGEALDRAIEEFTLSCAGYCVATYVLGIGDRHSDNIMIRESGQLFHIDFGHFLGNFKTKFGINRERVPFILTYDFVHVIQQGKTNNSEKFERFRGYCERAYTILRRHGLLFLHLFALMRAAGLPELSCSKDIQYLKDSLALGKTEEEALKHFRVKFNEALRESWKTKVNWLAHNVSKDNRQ
T1 sequence (P27986 whole entry partner, canonical isoform): as the sequence (P27986 whole entry partner, canonical isoform) above
T4 sequence (P48736 whole entry, canonical isoform): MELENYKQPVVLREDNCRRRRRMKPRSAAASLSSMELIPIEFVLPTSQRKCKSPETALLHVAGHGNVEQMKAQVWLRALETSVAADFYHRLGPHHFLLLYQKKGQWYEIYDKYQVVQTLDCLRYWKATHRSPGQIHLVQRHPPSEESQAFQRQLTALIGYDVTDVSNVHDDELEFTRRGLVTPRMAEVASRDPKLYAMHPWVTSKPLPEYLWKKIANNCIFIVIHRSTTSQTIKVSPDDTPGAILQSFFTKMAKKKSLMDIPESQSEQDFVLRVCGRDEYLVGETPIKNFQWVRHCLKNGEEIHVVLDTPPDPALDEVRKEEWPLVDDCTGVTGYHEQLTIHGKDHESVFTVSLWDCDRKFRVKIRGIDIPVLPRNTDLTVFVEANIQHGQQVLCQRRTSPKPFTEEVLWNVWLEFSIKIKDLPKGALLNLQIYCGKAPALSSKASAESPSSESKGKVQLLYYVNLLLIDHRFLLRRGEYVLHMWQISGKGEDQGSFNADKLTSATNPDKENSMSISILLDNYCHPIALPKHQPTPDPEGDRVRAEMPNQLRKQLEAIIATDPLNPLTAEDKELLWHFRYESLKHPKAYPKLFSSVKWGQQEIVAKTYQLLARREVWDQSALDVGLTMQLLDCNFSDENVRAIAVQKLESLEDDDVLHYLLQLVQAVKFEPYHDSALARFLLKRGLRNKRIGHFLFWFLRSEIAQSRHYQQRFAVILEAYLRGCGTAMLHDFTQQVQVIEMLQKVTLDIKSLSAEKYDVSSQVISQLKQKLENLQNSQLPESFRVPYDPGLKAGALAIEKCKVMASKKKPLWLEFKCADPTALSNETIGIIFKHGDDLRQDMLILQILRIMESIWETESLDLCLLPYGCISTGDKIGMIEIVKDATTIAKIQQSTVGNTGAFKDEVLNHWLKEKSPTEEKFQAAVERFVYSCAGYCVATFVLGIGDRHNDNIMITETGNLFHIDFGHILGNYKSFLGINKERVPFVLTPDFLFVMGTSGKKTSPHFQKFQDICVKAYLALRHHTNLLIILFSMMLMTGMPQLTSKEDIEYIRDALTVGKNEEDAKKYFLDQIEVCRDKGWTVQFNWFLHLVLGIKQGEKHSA
T2 sequence (P42336 whole entry, canonical isoform): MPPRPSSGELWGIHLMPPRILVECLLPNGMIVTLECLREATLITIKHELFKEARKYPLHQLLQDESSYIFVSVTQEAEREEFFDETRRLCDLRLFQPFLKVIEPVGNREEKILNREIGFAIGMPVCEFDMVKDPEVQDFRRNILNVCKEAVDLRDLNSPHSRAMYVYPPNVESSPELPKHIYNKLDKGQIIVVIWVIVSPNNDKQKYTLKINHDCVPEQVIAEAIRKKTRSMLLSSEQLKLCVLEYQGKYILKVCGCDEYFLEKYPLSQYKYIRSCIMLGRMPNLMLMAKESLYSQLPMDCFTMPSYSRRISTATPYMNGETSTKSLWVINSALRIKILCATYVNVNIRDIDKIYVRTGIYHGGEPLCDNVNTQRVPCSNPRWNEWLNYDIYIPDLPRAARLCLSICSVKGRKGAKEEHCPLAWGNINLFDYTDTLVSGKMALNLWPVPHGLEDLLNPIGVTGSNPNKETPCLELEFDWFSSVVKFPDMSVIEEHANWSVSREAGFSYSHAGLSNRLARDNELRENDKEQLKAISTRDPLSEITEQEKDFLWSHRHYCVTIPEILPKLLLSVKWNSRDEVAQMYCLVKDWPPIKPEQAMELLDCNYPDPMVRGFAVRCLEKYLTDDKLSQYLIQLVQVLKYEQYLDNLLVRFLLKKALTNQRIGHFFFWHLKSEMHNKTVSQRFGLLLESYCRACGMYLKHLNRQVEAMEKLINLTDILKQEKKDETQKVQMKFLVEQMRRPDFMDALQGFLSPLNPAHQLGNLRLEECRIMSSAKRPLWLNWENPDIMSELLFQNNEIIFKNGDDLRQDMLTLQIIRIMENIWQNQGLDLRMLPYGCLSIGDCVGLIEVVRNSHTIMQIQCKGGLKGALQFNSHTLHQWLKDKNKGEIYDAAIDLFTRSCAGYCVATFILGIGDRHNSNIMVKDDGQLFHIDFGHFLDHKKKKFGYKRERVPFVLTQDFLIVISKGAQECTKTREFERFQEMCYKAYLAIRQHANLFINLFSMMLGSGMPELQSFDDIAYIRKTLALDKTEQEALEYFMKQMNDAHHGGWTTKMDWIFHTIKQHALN
T2 sequence (P27986 whole entry partner, canonical isoform): as the sequence (P27986 whole entry partner, canonical isoform) above

Structure (SMILES): Cc1ccccc1-n1c(Cn2cnc3c(N)ncnc32)nc2cccc(C)c2c1=O [IC87114]
- viral replication in A549 lung epithelial cells (influenza virus): decreased
- protection from lethal challenge [1]: protected animals from lethal challenge

Structure (SMILES): Cc1ccccc1-c1nc2ncccc2cc1Cn1cnc2c(N)ncnc21 [compound 7b, 9-((2-(2-methylphenyl)-1,8-naphthyridin-3-yl)methyl)-9H-purin-6-amine]
- IC50 (PI3K p110δ): 1.3 µM
- IC50 (PI3K p110α): > 100 µM
- IC50 (PI3K p110β): > 100 µM
- IC50 (PI3K p110γ): 40 µM

From patent US20150011569A1, “NOVEL P13K p110 INHIBITORS AND METHODS OF USE THEREOF” (PHILADELPHIA HEALTH & EDUCATION CORPORATION d/b/a Drexel …, priority 2011, published 2015)
